One test concerns the target T1, Progesterone receptor (Homo sapiens, UniProt P06401).
T1 sequence (P06401 whole entry): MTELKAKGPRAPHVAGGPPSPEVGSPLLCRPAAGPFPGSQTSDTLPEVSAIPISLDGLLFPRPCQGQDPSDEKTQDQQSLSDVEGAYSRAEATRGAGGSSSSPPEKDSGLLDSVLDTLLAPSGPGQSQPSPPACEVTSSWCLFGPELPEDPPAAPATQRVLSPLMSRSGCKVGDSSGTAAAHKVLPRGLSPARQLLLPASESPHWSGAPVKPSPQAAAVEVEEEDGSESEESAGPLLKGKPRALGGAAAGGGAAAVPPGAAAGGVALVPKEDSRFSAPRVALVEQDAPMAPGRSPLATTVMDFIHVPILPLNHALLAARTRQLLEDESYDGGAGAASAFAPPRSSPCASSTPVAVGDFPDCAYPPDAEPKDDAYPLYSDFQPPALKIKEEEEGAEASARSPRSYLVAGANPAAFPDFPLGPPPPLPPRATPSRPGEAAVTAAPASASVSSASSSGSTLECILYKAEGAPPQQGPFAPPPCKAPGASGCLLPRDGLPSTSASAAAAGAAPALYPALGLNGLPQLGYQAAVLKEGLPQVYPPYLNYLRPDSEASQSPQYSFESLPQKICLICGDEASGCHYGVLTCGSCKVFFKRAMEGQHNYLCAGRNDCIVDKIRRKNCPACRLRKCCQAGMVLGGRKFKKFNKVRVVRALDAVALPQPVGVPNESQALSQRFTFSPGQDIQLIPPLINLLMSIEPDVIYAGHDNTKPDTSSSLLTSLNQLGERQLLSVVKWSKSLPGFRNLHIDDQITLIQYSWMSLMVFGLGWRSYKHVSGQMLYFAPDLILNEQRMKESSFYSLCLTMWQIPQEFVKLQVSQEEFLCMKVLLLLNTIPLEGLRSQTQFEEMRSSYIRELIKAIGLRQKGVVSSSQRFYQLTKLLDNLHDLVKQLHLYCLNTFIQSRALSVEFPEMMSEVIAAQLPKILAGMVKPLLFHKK
The experiment in a line: Binding affinity to progesterone receptor.

Test [1] has as its target T2, Mineralocorticoid receptor (Homo sapiens, UniProt P08235).
T2 sequence (P08235 whole entry): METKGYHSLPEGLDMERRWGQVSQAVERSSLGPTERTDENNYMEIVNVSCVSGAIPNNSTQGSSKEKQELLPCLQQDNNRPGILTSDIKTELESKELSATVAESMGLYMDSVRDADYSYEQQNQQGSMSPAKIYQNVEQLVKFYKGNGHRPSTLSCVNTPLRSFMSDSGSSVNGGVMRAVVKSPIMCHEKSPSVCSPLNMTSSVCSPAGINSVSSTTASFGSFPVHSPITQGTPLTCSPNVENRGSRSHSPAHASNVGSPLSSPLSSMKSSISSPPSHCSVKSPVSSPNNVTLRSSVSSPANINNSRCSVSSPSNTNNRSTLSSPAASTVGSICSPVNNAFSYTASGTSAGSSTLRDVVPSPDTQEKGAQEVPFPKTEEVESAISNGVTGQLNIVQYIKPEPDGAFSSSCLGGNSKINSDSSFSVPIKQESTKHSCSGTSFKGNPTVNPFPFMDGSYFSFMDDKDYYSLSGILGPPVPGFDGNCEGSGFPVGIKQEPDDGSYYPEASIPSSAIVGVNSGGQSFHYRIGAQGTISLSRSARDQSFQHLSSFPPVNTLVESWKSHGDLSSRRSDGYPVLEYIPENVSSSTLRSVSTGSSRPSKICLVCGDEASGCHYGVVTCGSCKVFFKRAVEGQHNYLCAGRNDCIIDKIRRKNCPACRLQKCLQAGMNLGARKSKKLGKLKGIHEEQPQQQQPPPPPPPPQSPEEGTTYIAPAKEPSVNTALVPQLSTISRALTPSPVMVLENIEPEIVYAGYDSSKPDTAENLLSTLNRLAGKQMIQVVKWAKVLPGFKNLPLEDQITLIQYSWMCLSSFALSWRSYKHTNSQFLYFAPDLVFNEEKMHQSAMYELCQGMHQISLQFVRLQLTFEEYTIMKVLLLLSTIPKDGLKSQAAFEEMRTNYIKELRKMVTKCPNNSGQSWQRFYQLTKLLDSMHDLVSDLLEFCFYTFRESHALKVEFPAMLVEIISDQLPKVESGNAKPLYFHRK
The experiment in a line: Binding affinity to mineralocorticoid receptor.

In test [2] the target is T3, Glucocorticoid receptor (Homo sapiens, UniProt P04150).
T3 sequence (P04150 whole entry): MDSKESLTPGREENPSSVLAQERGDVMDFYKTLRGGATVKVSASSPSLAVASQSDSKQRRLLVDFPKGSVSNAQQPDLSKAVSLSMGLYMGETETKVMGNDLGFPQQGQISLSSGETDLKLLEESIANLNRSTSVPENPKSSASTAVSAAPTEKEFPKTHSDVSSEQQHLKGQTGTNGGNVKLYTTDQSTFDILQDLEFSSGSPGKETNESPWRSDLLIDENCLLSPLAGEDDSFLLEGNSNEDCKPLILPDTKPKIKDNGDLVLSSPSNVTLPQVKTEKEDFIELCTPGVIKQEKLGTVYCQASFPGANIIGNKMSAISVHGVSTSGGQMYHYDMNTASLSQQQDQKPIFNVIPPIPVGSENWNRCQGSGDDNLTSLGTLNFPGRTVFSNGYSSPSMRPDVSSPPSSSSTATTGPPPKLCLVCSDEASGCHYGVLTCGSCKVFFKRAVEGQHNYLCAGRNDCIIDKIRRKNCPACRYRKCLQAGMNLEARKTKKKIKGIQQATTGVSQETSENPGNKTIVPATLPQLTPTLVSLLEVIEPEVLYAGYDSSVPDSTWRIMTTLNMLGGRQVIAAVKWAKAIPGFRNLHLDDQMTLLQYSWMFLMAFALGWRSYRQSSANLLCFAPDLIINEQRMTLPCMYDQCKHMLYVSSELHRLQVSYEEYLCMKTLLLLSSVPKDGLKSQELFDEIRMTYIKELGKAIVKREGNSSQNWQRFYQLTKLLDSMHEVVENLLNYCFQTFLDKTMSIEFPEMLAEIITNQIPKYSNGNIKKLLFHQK
Kind of test: Binding affinity to glucocorticoid receptor.

The target in test [3] is T3, Glucocorticoid receptor. The experiment in a line: Agonist activity at glucocorticoid receptor by MMTV transactivation assay. In kind it is functional.
A further test deals with T4, Androgen receptor (Homo sapiens, UniProt P10275).
T4 sequence (P10275 whole entry): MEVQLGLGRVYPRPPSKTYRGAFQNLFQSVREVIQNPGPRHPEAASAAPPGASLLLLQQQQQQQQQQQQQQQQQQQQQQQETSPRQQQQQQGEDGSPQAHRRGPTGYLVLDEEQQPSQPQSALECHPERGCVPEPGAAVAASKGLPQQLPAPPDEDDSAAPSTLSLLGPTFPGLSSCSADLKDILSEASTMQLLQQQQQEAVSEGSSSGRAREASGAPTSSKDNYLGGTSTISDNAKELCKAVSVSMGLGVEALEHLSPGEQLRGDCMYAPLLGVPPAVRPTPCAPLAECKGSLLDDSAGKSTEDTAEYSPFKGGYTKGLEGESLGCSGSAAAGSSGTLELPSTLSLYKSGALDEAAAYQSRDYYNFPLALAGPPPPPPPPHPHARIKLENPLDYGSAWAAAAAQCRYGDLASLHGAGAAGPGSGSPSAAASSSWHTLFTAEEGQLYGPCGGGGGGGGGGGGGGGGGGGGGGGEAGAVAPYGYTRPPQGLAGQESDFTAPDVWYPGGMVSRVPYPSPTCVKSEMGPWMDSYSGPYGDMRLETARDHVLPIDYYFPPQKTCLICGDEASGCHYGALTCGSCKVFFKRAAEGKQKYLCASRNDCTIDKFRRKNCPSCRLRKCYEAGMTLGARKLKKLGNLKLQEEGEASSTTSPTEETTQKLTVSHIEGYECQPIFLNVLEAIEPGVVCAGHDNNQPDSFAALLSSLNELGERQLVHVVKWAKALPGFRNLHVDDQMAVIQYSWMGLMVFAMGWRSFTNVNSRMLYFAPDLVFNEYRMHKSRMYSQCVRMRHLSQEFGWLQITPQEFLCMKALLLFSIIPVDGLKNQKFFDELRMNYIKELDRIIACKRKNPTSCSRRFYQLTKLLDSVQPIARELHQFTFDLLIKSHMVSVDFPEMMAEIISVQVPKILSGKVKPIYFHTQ
The experiment in a line: Binding affinity to androgen receptor.

These results are taken from ChEMBL document CHEMBL1152164, “The first X-ray crystal structure of the glucocorticoid receptor bound to a non-steroidal agonist” (Bioorg Med Chem Lett, 2008).

As for `CCN(C[C@](O)(CNC(=O)c1cnn(-c2ccc(F)cc2)c1N)C(F)(F)F)C(=O)c1c(Cl)cccc1Cl`, the EC50 on Progesterone receptor was greater than 10000 nM; in test [1] it was greater than 10000 nM; on Glucocorticoid receptor [3], 2 nM; on Androgen receptor it was greater than 10000 nM. Moreover, on Glucocorticoid receptor [2], the IC50 was 3.16 nM.
